Reference: ChEMBL document CHEMBL1135252, “Design and synthesis of antiangiogenic/heparin-binding arginine dendrimer mimicking the surface of endostatin” (Bioorg Med Chem Lett, 2002)

Legend:
Rattus norvegicus = species: Rattus norvegicus; assay: Salt concentration required for release from the heparin-agarose column was evaluated to determine the heparin- binding activity to inhibit the growth of rat lung endothelial(RLE) cells
Gallus gallus [1] = species: Gallus gallus; assay: Antiangiogenic activity in chicken embryo chorioallantoic membrane assay, at 10 ug/CAM was determined; type: functional, tissue-based
Gallus gallus [2] = species: Gallus gallus; assay: Antiangiogenic activity in chicken embryo chorioallantoic membrane assay, at 100 ug/CAM was determined; type: functional, tissue-based

N=C(N)NCCCC(N)C(=O)NC(CCCNC(=N)N)C(=O)NCCCCC(NC(=O)C(CCCNC(=N)N)NC(=O)C(N)CCCNC(=N)N)C(=O)NCCCCC(NC(=O)C(CCCCNC(=O)C(CCCNC(=N)N)NC(=O)C(N)CCCNC(=N)N)NC(=O)C(CCCNC(=N)N)NC(=O)C(N)CCCNC(=N)N)C(=O)NCCCC(NC(=O)NCC(=O)O)NC(=O)C(CCCCNC(=O)C(CCCCNC(=O)C(CCCNC(=N)N)NC(=O)C(N)CCCNC(=N)N)NC(=O)C(CCCNC(=N)N)NC(=O)C(N)CCCNC(=N)N)NC(=O)C(CCCCNC(=O)C(CCCNC(=N)N)NC(=O)C(N)CCCNC(=N)N)NC(=O)C(CCCNC(=N)N)NC(=O)C(N)CCCNC(=N)N (stereo not drawn)
NaCl concentration (Rattus norvegicus): 1.2 M | inhibition (Gallus gallus [1]): 45.4% | inhibition (Gallus gallus [2]): 70%
